# Values joined by “and” are separate entries in the source; they are usually repeats but may differ in a detail not shown here. Identical values can stand only once.
# Experiments:
# [1] = tested on: parkinsonian marmosets (MPTP); test: Locomotory activity of MPTP-treated parkinsonian marmosets (image analyser, small/medium/large movements); type: in vivo, Callithrix jacchus; design: Locomotory activity, small movements / Locomotory activity, small movements, Average ± S.E.M. / Locomotory activity, medium movements / Locomotory activity, large movements / Time passed in moving, small movements: unit not given here; conditions: for Time passed in moving, large movements, Average ± S.E.M. / Time passed in moving, medium movements, Average ± S.E.M. / Time passed in moving, small movements, Average ± S.E.M. / Time passed in moving, small movements / Time passed in moving, medium movements / Time passed in moving, large movements: 30 min after 1st daily L-DOPA
# Method: On day 32, the animals are divided into 2 groups. […] The locomotory activity is determined by placing the animals in test cages (50 cm×83 cm×77 cm) which are equipped with 3 […] onto which the animals can jump as well as a Plexiglas door in front of which is placed a camera. […] The image is digitalized with a 800×600 definition with 256 levels of grey and the changes in pixels from one image to another are counted. This allows the locomotory activity to be classified into small, medium or large movements. […] The locomotory activity of the animals is measured during the exploration phase, that is to say immediately after they are placed in the test cage.
# [2] = tested on: parkinsonian marmosets (MPTP); test: Dyskinesic score in MPTP-treated marmosets under chronic L-DOPA; type: in vivo, Callithrix jacchus; design: Total dyskinesic score, individual values / Total dyskinesic score, Average ± S.E.M.: scale not given here; conditions: for Total dyskinesic score, Average ± S.E.M. / Total dyskinesic score, individual values: L-DOPA alone (Group 1 controls, sucrose); for Total dyskinesic score, individual values: marmosets 1-3
# Method: The marmosets have free access to water and have available each day 35 g of food rich in carbohydrates, proteins and vitamins mixed with water, milk and sugar and also fresh fruit.
# All the animals receive 3 injections of 2 mg/kg of MPTP by the subcutaneous route, on days 1, 7 and 32. On day 32, the animals are divided into 2 groups.
# The dyskinesic score is determined according to a number of parameters and each with a different degree of intensity: […]
# [3] = 30 min after the 1st administration of L-DOPA (25 mg/kg p.o.), Group 1, all intervals of 1 h
# [4] = 30 min after the 1st administration of L-DOPA (25 mg/kg p.o.), Group 1 marmosets 1-3, interval 11-20 min
# [5] = 30 min after the 1st administration of L-DOPA (25 mg/kg p.o.), Group 1 marmosets 1-3, interval 31-40 min
# [6] = 30 min after the 1st administration of L-DOPA (25 mg/kg p.o.), Group 1 marmosets 1-3, interval 41-50 min
# [7] = 30 min after the 1st administration of L-DOPA (25 mg/kg p.o.), Group 1 marmosets 1-3, interval 51-60 min
# [8] = L-DOPA alone (Group 1, sucrose), 10 days after L-DOPA, in s (unit assumed)
# [9] = L-DOPA alone (Group 1, sucrose), 20 days after L-DOPA, in s (unit assumed)
# [10] = day 57 after 1st MPTP, 30 min after 1st daily L-DOPA
# [11] = day 57 after 1st MPTP, 2 h after 1st daily L-DOPA
# [12] = day 60 after 1st MPTP, 30 min after 1st daily L-DOPA
# [13] = day 60 after 1st MPTP, 2 h after 1st daily L-DOPA
# [14] = day 67 after 1st MPTP, 30 min after 1st daily L-DOPA
# [15] = day 67 after 1st MPTP, 2 h after 1st daily L-DOPA
# [16] = day 104 after 1st MPTP, 30 min after 1st daily L-DOPA
# [17] = day 104 after 1st MPTP, 2 h after 1st daily L-DOPA
# [18] = riluzole 2 × 10 mg/kg + L-DOPA (Group 2), 10 days after L-DOPA
# [19] = riluzole 2 × 10 mg/kg + L-DOPA (Group 2), 10 days after L-DOPA, marmosets 4-6, interval 21-30 min, 10 mg/kg, in s (unit assumed)
# [20] = riluzole 2 × 10 mg/kg + L-DOPA (Group 2), 10 days after L-DOPA, marmosets 4-6, interval 31-40 min, 10 mg/kg, in s (unit assumed)
# [21] = riluzole 2 × 10 mg/kg + L-DOPA (Group 2), 10 days after L-DOPA, marmosets 4-6, interval 51-60 min, 10 mg/kg, in s (unit assumed)
# [22] = riluzole 2 × 10 mg/kg + L-DOPA (Group 2), 20 days after L-DOPA, in s (unit assumed)
# [23] = riluzole 2 × 10 mg/kg + L-DOPA (Group 2), 20 days after L-DOPA, marmosets 4-6, interval 1-10 min, 10 mg/kg, in s (unit assumed)
smiles,measurement,setting,value
"N[C@@H](Cc1ccc(O)c(O)c1)C(=O)O [L-DOPA, 3-(3,4-dihydroxyphenyl)-L-alanine]","Locomotory activity, large movements, Average ± S.E.M.",[1]; [3],334 + 23
same,"Locomotory activity, medium movements, Average ± S.E.M.",[1]; [3],226 ± 13
same,"Locomotory activity, small movements, Average ± S.E.M.",[1]; [3],40 ± 16
same,"Locomotory activity, medium movements","[1]; 30 min after the 1st administration of L-DOPA (25 mg/kg p.o.), Group 1 marmosets 1-3, interval 1-10 min",250 and 235 and 270
same,"Locomotory activity, large movements",[1]; [4],350 and 385 and 275
same,"Locomotory activity, medium movements",[1]; [4],240 and 190 and 290
same,"Locomotory activity, large movements","[1]; 30 min after the 1st administration of L-DOPA (25 mg/kg p.o.), Group 1 marmosets 1-3, interval 21-30 min",490 and 370 and 375
same,"Locomotory activity, large movements",[1]; [5],290 and 230 and 335
same,"Locomotory activity, medium movements",[1]; [5],255 and 355 and 205
same,"Locomotory activity, large movements",[1]; [6],425 and 295 and 420
same,"Locomotory activity, medium movements",[1]; [6],165 and 260
same,"Locomotory activity, large movements",[1]; [7],350 and 330 and 365
same,"Locomotory activity, medium movements",[1]; [7],215 and 240 and 200
same,"Locomotory activity, small movements",[1]; [7],35 and 30
same,Effect on locomotory activity (in words),[1]; L-DOPA after repeated treatment of 10 days and of 20 days,does not have or has little beneficial effect on the locomotory activity
same,"Time passed in moving, large movements, Average ± S.E.M.",[1]; [8],171 ± 48
same,"Time passed in moving, medium movements, Average ± S.E.M.",[1]; [8],160 ± 23
same,"Time passed in moving, small movements, Average ± S.E.M.",[1]; [8],269 ± 47
same,"Time passed in moving, small movements","[1]; L-DOPA alone (Group 1, sucrose), 10 days after L-DOPA, marmosets 1-3, interval 51-60 min",205 and 225 and 240
same,"Time passed in moving, medium movements","[1]; L-DOPA alone (Group 1, sucrose), 10 days after L-DOPA, marmosets 1-3, interval 51-60 min, in s (unit assumed)",165 and 305 and 235
same,"Time passed in moving, large movements, Average ± S.E.M.",[1]; [9],283 ± 50
same,"Time passed in moving, medium movements, Average ± S.E.M.",[1]; [9],235 ± 37
same,"Time passed in moving, small movements, Average ± S.E.M.",[1]; [9],83 ± 19
same,Effect on locomotory activity (in words),"[1]; acute administration of L-DOPA 25 mg/kg, 15 days after the 3rd injection of MPTP",increases the locomotory activity by decreasing the small movements and increasing the large movements
same,"Total dyskinesic score, Average ± S.E.M.",[2]; [10],6.7 ± 2.1
same,"Total dyskinesic score, individual values",[2]; [10],4 and 11 and 5
same,"Total dyskinesic score, Average ± S.E.M.",[2]; [11],6.0 ± 2.1
same,"Total dyskinesic score, individual values",[2]; [11],3 and 10 and 5
same,"Total dyskinesic score, Average ± S.E.M.",[2]; [12],9.0 ± 2.5
same,"Total dyskinesic score, individual values",[2]; [12],4 and 11 and 12
same,"Total dyskinesic score, Average ± S.E.M.",[2]; [13],8.3 ± 2.32
same,"Total dyskinesic score, individual values",[2]; [13],4 and 9 and 12
same,"Total dyskinesic score, Average ± S.E.M.",[2]; [14],10 ± 3.0
same,"Total dyskinesic score, individual values",[2]; [14],4 and 14 and 12
same,"Total dyskinesic score, Average ± S.E.M.",[2]; [15],10 ± 3.0
same,"Total dyskinesic score, individual values",[2]; [15],4 and 13 (2×)
same,"Total dyskinesic score, Average ± S.E.M.",[2]; [16],11 ± 3.8
same,"Total dyskinesic score, individual values",[2]; [16],4 and 17 and 2
same,"Total dyskinesic score, Average ± S.E.M.",[2]; [17],11 ± 3.0
same,"Total dyskinesic score, individual values",[2]; [17],5 and 17 and 12
same,Dyskinesias (in words),"[2]; repeated L-DOPA 25 mg/kg oral, 3 times per day, days 57, 60, 67 and 104, maximum effect on day 104",produce dyskinesias
"Nc1nc2ccc(OC(F)(F)F)cc2s1 [riluzole, 2-amino-6-trifluoromethoxybenzo-thiazole]",Effect on locomotory activity (in words),"[1]; riluzole 10 mg/kg oral, twice per day for 72 days, after 10 and 20 days of treatment with L-DOPA",capable of improving the locomotory activity
same,"Time passed in moving, large movements, Average ± S.E.M.",[1]; [18],410 ± 25^+++
same,"Time passed in moving, small movements, Average ± S.E.M.",[1]; [18],57 ± 16^+++
same,"Time passed in moving, medium movements, Average ± S.E.M.","[1]; riluzole 2 × 10 mg/kg + L-DOPA (Group 2), 10 days after L-DOPA, in s (unit assumed)",134 ± 13
same,"Time passed in moving, small movements","[1]; riluzole 2 × 10 mg/kg + L-DOPA (Group 2), 10 days after L-DOPA, marmosets 4-6, interval 1-10 min",5
same,"Time passed in moving, large movements","[1]; riluzole 2 × 10 mg/kg + L-DOPA (Group 2), 10 days after L-DOPA, marmosets 4-6, interval 1-10 min, 10 mg/kg, in s (unit assumed)",560 and 495 and 520
same,"Time passed in moving, large movements","[1]; riluzole 2 × 10 mg/kg + L-DOPA (Group 2), 10 days after L-DOPA, marmosets 4-6, interval 11-20 min, 10 mg/kg, in s (unit assumed)",565 and 455 and 370
same,"Time passed in moving, large movements",[1]; [19],540 and 355 and 435
same,"Time passed in moving, medium movements",[1]; [19],60 and 120 and 115
same,"Time passed in moving, large movements",[1]; [20],460 and 240 and 385
same,"Time passed in moving, medium movements",[1]; [20],140 and 215 and 190
same,"Time passed in moving, medium movements","[1]; riluzole 2 × 10 mg/kg + L-DOPA (Group 2), 10 days after L-DOPA, marmosets 4-6, interval 41-50 min, 10 mg/kg, in s (unit assumed)",155 and 205 and 175
same,"Time passed in moving, large movements",[1]; [21],430 and 265 and 310
same,"Time passed in moving, medium movements",[1]; [21],135 and 125 and 190
same,"Time passed in moving, medium movements, Average ± S.E.M.","[1]; riluzole 2 × 10 mg/kg + L-DOPA (Group 2), 20 days after L-DOPA",148 ± 13^+
same,"Time passed in moving, large movements, Average ± S.E.M.",[1]; [22],365 ± 37
same,"Time passed in moving, small movements, Average ± S.E.M.",[1]; [22],67 ± 30
same,"Time passed in moving, large movements",[1]; [23],445 and 335 and 490
same,"Time passed in moving, medium movements",[1]; [23],155 and 140 and 80
same,"Time passed in moving, medium movements","[1]; riluzole 2 × 10 mg/kg + L-DOPA (Group 2), 20 days after L-DOPA, marmosets 4-6, interval 51-60 min, 10 mg/kg, in s (unit assumed)",90 and 180 and 105

# Reference: US6387936B1 (Aventis Pharma S.A., priority 1998, dated 2002)
